Data reported in ChEMBL document CHEMBL4145553, “Design, synthesis, and biological evaluation of novel amide and hydrazide based thioether analogs targeting Histone deacteylase (HDAC) enzymes” (Eur J Med Chem, 2018).

Columns and labels:
MDA-MB-231 = assay: Growth inhibition of human MDA-MB-231 cells at 10 uM incubated for 48 hrs by sulforhodamine B assay relative to control; assay type: functional; conditions: MDA-MB-231, 48 h, values are per cent of control
BT-549 = assay: Growth inhibition of human BT549 cells at 10 uM incubated for 48 hrs by sulforhodamine B assay relative to control; assay type: functional; conditions: BT-549, 48 h, values are per cent of control
A549 = assay: Growth of human A549/ATCC cells at 10 uM incubated for 48 hrs by sulforhodamine B assay relative to control; conditions: A549, 48 h
HOP-62 = assay: Growth of human HOP62 cells at 10 uM incubated for 48 hrs by sulforhodamine B assay relative to control; conditions: HOP-62, 48 h
UACC-62 = assay: Growth of human UACC62 cells at 10 uM incubated for 48 hrs by sulforhodamine B assay relative to control; conditions: UACC-62, 48 h
UACC-257 = assay: Growth of human UACC257 cells at 10 uM incubated for 48 hrs by sulforhodamine B assay relative to control; conditions: UACC-257, 48 h
T47D = assay: Growth inhibition of human T47D cells at 10 uM incubated for 48 hrs by sulforhodamine B assay relative to control; assay type: functional; conditions: values are per cent of control
OVCAR-4 = assay: Growth of human OVCAR4 cells at 10 uM incubated for 48 hrs by sulforhodamine B assay relative to control; conditions: OVCAR-4, 48 h
M14 = assay: Growth of human M14 cells at 10 uM incubated for 48 hrs by sulforhodamine B assay relative to control; conditions: M14, 48 h
RPMI-8226 = assay: Growth of human RPMI8226 cells at 10 uM incubated for 48 hrs by sulforhodamine B assay relative to control; conditions: RPMI-8226, 48 h
K562 = assay: Growth of human K562 cells at 10 uM incubated for 48 hrs by sulforhodamine B assay relative to control; conditions: K562, 48 h
SF-268 = assay: Growth of human SF268 cells at 10 uM incubated for 48 hrs by sulforhodamine B assay relative to control; conditions: SF-268, 48 h
LOX IMVI = assay: Growth of human LOXIMVI cells at 10 uM incubated for 48 hrs by sulforhodamine B assay relative to control
KM12 = assay: Growth of human KM12 cells at 10 uM incubated for 48 hrs by sulforhodamine B assay relative to control; conditions: KM12, 48 h
RXF 393 = assay: Growth inhibition of human RXF393 cells at 10 uM incubated for 48 hrs by sulforhodamine B assay relative to control; assay type: functional; conditions: RXF 393, 48 h, values are per cent of control
OVCAR-5 = assay: Growth of human OVCAR5 cells at 10 uM incubated for 48 hrs by sulforhodamine B assay relative to control; conditions: OVCAR-5, 48 h
U-251 = assay: Growth of human U251 cells at 10 uM incubated for 48 hrs by sulforhodamine B assay relative to control; conditions: U-251, 48 h
UO-31 = assay: Growth inhibition of human UO31 cells at 10 uM incubated for 48 hrs by sulforhodamine B assay relative to control; assay type: functional; conditions: UO-31, 48 h, values are per cent of control
A498 = assay: Growth inhibition of human A498 cells at 10 uM incubated for 48 hrs by sulforhodamine B assay relative to control; assay type: functional; conditions: A498, 48 h, values are per cent of control
SN12C = assay: Growth inhibition of human SN12C cells at 10 uM incubated for 48 hrs by sulforhodamine B assay relative to control; assay type: functional; conditions: values are per cent of control
HOP-92 = assay: Growth inhibition of human HOP92 cells at 10 uM incubated for 48 hrs by sulforhodamine B assay relative to control; assay type: functional; conditions: HOP-92, 48 h, values are per cent of control
SK-MEL-5 = assay: Growth of human SK-MEL-5 cells at 10 uM incubated for 48 hrs by sulforhodamine B assay relative to control; conditions: SK-MEL-5, 48 h
NCI/ADR-RES = assay: Growth inhibition of human NCI/ADR-RES cells at 10 uM incubated for 48 hrs by sulforhodamine B assay relative to control; assay type: functional; conditions: values are per cent of control
HCT-116 = assay: Growth of human HCT116 cells at 10 uM incubated for 48 hrs by sulforhodamine B assay relative to control; conditions: HCT-116, 48 h
IGROV-1 = assay: Growth of human IGROV1 cells at 10 uM incubated for 48 hrs by sulforhodamine B assay relative to control; conditions: IGROV-1, 48 h
HT-29 = assay: Growth of human HT-29 cells at 10 uM incubated for 48 hrs by sulforhodamine B assay relative to control; conditions: HT-29, 48 h
SF-295 = assay: Growth of human SF295 cells at 10 uM incubated for 48 hrs by sulforhodamine B assay relative to control; conditions: SF-295, 48 h
COLO 205 = assay: Growth of human COLO205 cells at 10 uM incubated for 48 hrs by sulforhodamine B assay relative to control; conditions: COLO 205, 48 h
SNB-75 = assay: Growth of human SNB75 cells at 10 uM incubated for 48 hrs by sulforhodamine B assay relative to control; conditions: SNB-75, 48 h
SK-MEL-28 = assay: Growth of human SK-MEL-28 cells at 10 uM incubated for 48 hrs by sulforhodamine B assay relative to control; conditions: SK-MEL-28, 48 h
SNB-19 = assay: Growth of human SNB19 cells at 10 uM incubated for 48 hrs by sulforhodamine B assay relative to control; conditions: SNB-19, 48 h
MCF7 = assay: Growth inhibition of human MCF7 cells at 10 uM incubated for 48 hrs by sulforhodamine B assay relative to control; assay type: functional; conditions: MCF7, 48 h, values are per cent of control
Malme-3M = assay: Growth of human MALME-3M cells at 10 uM incubated for 48 hrs by sulforhodamine B assay relative to control

| Structure (SMILES) | growth, % of control at 10 µM (MDA-MB-231) [%] | growth, % of control at 10 µM (BT-549) [%] | growth, % of control at 10 µM (A549) [%] | growth, % of control at 10 µM (HOP-62) [%] | growth, % of control at 10 µM (UACC-62) [%] | growth, % of control at 10 µM (UACC-257) [%] | growth, % of control at 10 µM (T47D) [%] | growth, % of control at 10 µM (OVCAR-4) [%] | growth, % of control at 10 µM (M14) [%] | growth, % of control at 10 µM (RPMI-8226) [%] | growth, % of control at 10 µM (K562) [%] | growth, % of control at 10 µM (SF-268) [%] | growth, % of control at 10 µM (LOX IMVI) [%] | growth, % of control at 10 µM (KM12) [%] | growth, % of control at 10 µM (RXF 393) [%] | growth, % of control at 10 µM (OVCAR-5) [%] | growth, % of control at 10 µM (U-251) [%] | growth, % of control at 10 µM (UO-31) [%] | growth, % of control at 10 µM (A498) [%] | growth, % of control at 10 µM (SN12C) [%] | also measured |
| --- | --- | --- | --- | --- | --- | --- | --- | --- | --- | --- | --- | --- | --- | --- | --- | --- | --- | --- | --- | --- | --- |
| CCS/C(Nc1ccccc1)=C(\C#N)C(=O)Nc1ccccc1 | 94.2 | 103 | 86.2 | 93.1 | 79.8 | 103 | 70.1 | 102 | 128 | 79.2 | 89.9 | 91.2 | 97.9 | 90 | 101 | 96.5 | 92.6 | 76 | 76.2 | 94 | growth, % of control at 10 µM (HOP-92): 53%; growth, % of control at 10 µM (SK-MEL-5): 93.5%; growth, % of control at 10 µM (NCI/ADR-RES): 91.1%; growth, % of control at 10 µM (HCT-116): 92.7%; growth, % of control at 10 µM (IGROV-1): 105%; growth, % of control at 10 µM (HT-29): 88.2%; growth, % of control at 10 µM (SF-295): 91.3%; growth, % of control at 10 µM (COLO 205): 113%; growth, % of control at 10 µM (SNB-75): 102%; growth, % of control at 10 µM (SK-MEL-28): 112%; growth, % of control at 10 µM (SNB-19): 91.2%; growth, % of control at 10 µM (MCF7): 98.6%; growth, % of control at 10 µM (Malme-3M): 117% |
| CCS/C(Nc1ccccc1)=C(\C#N)C(=O)N/N=C\c1ccc(Cl)cc1Cl | 39 | 45.4 | 38.3 | 36.7 | 26.6 | 51.9 | 17.8 | 56.5 | 21 | 9.68 | 7.35 | 34 | 34.4 | 28 | 2.63 | 72.5 | 19.1 | 41.9 | -2.1 | 34.5 | growth, % of control at 10 µM (HOP-92): 29.2%; growth, % of control at 10 µM (SK-MEL-5): 12.4%; growth, % of control at 10 µM (NCI/ADR-RES): 10.8%; growth, % of control at 10 µM (HCT-116): 17.5%; growth, % of control at 10 µM (IGROV-1): 49.1%; growth, % of control at 10 µM (HT-29): 9.53%; growth, % of control at 10 µM (SF-295): 17%; growth, % of control at 10 µM (COLO 205): 28.4%; growth, % of control at 10 µM (SNB-75): -6.89%; growth, % of control at 10 µM (SK-MEL-28): 60.5%; growth, % of control at 10 µM (SNB-19): 19.6%; growth, % of control at 10 µM (MCF7): 19.3%; growth, % of control at 10 µM (Malme-3M): 38.1% |
| CCS/C(Nc1ccccc1)=C(\C#N)C(=O)N/N=C\c1ccco1 | 96.2 | 109 | 86.7 | 97.4 | 97.7 | 84.4 | 78 | 106 | 99.2 | 103 | 97.8 | 98 | 109 | 104 | 104 | 106 | 94 | 86.8 | 77.3 | 97.7 | growth, % of control at 10 µM (HOP-92): 94.7%; growth, % of control at 10 µM (SK-MEL-5): 101%; growth, % of control at 10 µM (NCI/ADR-RES): 101%; growth, % of control at 10 µM (HCT-116): 95.5%; growth, % of control at 10 µM (IGROV-1): 105%; growth, % of control at 10 µM (HT-29): 94.7%; growth, % of control at 10 µM (SF-295): 101%; growth, % of control at 10 µM (COLO 205): 103%; growth, % of control at 10 µM (SNB-75): 89.1%; growth, % of control at 10 µM (SK-MEL-28): 109%; growth, % of control at 10 µM (SNB-19): 101%; growth, % of control at 10 µM (MCF7): 66.8%; growth, % of control at 10 µM (Malme-3M): 95.9% |
